Assay results reported in ChEMBL document CHEMBL5303573, “Mapping human microbiome drug metabolism by gut bacteria and their genes” (Nature, 2019).

Columns and labels:
Format in all cases: ADME
Set-up in all cases: dose 2 uM
Settings in all cases: 2 µM
[1] = molecular target: T1, Lipolytic enzyme, G-D-S-L family (Bacteroides thetaiotaomicron, UniProt Q8A0E6); test: (§1) The drug is tested on Bacteroides thetaiotaomicron strain: VPI-5482 for biotransformation. The drug concentrations were measured before and after a 12-h incubation by liquid-chromatography-coupled mass spectrometry (LC–MS)
T1 sequence (Q8A0E6 whole entry): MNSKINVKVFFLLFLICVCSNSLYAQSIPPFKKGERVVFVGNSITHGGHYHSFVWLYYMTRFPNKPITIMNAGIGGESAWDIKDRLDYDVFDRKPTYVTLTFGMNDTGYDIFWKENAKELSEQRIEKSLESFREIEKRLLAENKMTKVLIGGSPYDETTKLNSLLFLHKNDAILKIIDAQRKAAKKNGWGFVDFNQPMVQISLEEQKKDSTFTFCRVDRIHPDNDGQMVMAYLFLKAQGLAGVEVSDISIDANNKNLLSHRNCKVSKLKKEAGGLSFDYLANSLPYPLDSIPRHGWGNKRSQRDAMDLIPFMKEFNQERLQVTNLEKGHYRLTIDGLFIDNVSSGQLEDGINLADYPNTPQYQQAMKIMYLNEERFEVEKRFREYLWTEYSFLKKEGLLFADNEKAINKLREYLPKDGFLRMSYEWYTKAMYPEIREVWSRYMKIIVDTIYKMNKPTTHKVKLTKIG

[2] = molecular target: T2, 3-oxo-5-alpha-steroid 4-dehydrogenase (Bacteroides thetaiotaomicron, UniProt Q8A618); test: as §1
T2 sequence (Q8A618 whole entry): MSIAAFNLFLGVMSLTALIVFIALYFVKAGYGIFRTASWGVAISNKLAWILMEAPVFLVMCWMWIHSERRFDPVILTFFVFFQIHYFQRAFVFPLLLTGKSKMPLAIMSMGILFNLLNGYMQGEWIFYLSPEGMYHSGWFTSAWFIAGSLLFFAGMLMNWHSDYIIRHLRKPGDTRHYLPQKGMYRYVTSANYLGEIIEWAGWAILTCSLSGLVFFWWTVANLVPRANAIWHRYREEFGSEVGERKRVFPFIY

[3] = molecular target: T3, Lipolytic enzyme, G-D-S-L family (Bacteroides thetaiotaomicron, UniProt Q8A0C5); test: as §1
T3 sequence (Q8A0C5 whole entry): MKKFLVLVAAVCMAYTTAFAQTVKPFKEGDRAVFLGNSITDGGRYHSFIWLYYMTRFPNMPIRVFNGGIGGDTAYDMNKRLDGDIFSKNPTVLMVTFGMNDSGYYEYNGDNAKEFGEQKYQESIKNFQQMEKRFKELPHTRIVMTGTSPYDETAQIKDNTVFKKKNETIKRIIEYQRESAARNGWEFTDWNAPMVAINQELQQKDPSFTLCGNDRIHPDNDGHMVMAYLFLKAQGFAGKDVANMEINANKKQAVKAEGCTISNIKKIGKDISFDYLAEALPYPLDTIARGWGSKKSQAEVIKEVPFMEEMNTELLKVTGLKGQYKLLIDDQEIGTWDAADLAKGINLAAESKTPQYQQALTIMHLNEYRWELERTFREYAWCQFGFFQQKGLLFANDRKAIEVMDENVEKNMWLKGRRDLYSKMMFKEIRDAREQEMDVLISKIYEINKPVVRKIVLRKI

[4] = molecular target: T4, Sialic acid-specific 9-O-acetylesterase (Bacteroides thetaiotaomicron, UniProt Q8A0D0); test: as §1
T4 sequence (Q8A0D0 whole entry): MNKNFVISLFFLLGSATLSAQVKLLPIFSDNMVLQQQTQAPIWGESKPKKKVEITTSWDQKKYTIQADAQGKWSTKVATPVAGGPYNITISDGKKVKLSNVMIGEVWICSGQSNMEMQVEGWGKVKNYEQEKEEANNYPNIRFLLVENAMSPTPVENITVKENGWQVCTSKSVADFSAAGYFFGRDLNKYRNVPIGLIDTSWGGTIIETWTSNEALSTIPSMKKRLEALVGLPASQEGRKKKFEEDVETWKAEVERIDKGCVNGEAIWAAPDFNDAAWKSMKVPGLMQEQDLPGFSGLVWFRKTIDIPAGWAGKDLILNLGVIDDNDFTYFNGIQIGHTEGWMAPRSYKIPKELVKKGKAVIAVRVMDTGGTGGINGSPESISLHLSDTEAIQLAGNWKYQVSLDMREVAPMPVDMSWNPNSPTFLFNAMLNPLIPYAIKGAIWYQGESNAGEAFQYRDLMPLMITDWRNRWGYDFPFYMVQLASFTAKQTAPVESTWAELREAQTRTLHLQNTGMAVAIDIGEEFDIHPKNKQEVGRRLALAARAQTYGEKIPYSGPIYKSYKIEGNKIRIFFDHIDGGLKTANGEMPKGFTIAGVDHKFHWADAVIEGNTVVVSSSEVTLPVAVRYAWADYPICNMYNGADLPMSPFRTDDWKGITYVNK

Nitroreductase = molecular target: T5, Nitroreductase (Bacteroides thetaiotaomicron, UniProt Q8A911); test: as §1
T5 sequence (Q8A911 whole entry): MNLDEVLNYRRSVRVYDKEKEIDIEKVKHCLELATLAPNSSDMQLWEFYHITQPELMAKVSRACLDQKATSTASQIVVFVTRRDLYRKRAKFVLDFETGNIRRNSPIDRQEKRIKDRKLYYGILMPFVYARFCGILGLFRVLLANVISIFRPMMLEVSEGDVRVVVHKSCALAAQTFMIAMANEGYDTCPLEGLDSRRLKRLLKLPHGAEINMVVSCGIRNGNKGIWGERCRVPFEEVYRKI

Endoglucanase E (EGE) = molecular target: T6, Endoglucanase E (EGE) (Bacteroides thetaiotaomicron, UniProt Q8AAL9); test: as §1
T6 sequence (Q8AAL9 whole entry): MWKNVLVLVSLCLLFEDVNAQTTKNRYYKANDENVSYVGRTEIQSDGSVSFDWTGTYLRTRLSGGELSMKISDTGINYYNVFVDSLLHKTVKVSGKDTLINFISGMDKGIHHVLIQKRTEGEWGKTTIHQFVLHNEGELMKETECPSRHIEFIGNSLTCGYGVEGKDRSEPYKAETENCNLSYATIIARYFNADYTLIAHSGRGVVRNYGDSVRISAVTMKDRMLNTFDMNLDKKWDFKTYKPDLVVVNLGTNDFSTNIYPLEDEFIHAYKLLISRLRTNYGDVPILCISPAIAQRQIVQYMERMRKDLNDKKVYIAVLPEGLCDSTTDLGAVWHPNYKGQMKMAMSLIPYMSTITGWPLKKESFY

Row | Bacterial Biotransformation [1] | Bacterial Biotransformation [2] | Bacterial Biotransformation [3] | Bacterial Biotransformation [4] | Bacterial Biotransformation (Nitroreductase) | Bacterial Biotransformation (Endoglucanase E (EGE)) | Structure (SMILES)
1 | Compound NOT metabolized | Compound NOT metabolized | Compound metabolized | Compound metabolized | Compound NOT metabolized | Compound metabolized | CC(=O)Oc1ccc(C(c2ccc(OC(C)=O)cc2)c2ccccn2)cc1 [BISACODYL]
2 | Compound NOT metabolized | Compound NOT metabolized | Compound NOT metabolized | Compound NOT metabolized | Compound NOT metabolized | Compound NOT metabolized | C#C[C@]1(O)CC[C@H]2[C@@H]3CCC4=Cc5oncc5C[C@]4(C)[C@H]3CC[C@@]21C [DANAZOL]
3 | Compound NOT metabolized | Compound NOT metabolized | Compound metabolized | Compound NOT metabolized | Compound NOT metabolized | Compound NOT metabolized | CC(=O)OCC(=O)[C@@]12N=C(C)O[C@@H]1C[C@H]1[C@@H]3CCC4=CC(=O)C=C[C@]4(C)[C@H]3[C@@H](O)C[C@@]12C [DEFLAZACORT]
4 | Compound NOT metabolized | Compound NOT metabolized | Compound metabolized | Compound metabolized | Compound NOT metabolized | Compound metabolized | CC(=O)Nc1ccc(OC(C)=O)cc1 [DIACETAMATE]
5 | Compound NOT metabolized | Compound NOT metabolized | Compound NOT metabolized | Compound NOT metabolized | Compound NOT metabolized | Compound NOT metabolized | CCN(CC)C(=O)/C(C#N)=C/c1cc(O)c(O)c([N+](=O)[O-])c1 [ENTACAPONE]
6 | Compound NOT metabolized | Compound NOT metabolized | Compound NOT metabolized | Compound NOT metabolized | Compound NOT metabolized |  | CCOC(=O)C1=C(C)NC(C)=C(C(=O)OC)C1c1cccc([N+](=O)[O-])c1 (stereo not given) [NITRENDIPINE]
7 | Compound NOT metabolized | Compound NOT metabolized | Compound NOT metabolized | Compound NOT metabolized | Compound NOT metabolized | Compound NOT metabolized | COc1ccnc(C[S+]([O-])c2nc3ccc(OC(F)F)cc3[nH]2)c1OC (stereo not given) [PANTOPRAZOLE]
8 | Compound NOT metabolized | Compound NOT metabolized | Compound NOT metabolized | Compound NOT metabolized | Compound NOT metabolized | Compound NOT metabolized | Nc1ccc(/N=N/c2ccccc2)c(N)n1 [PHENAZOPYRIDINE]
9 | Compound NOT metabolized | Compound NOT metabolized | Compound metabolized | Compound metabolized | Compound NOT metabolized | Compound NOT metabolized | CC(=O)SCC(Cc1ccccc1)C(=O)NCC(=O)OCc1ccccc1 (stereo not given) [RACECADOTRIL]
10 |  | Compound NOT metabolized | Compound metabolized | Compound NOT metabolized | Compound NOT metabolized | Compound NOT metabolized | CC(=O)OCC(=O)NCCCOc1cccc(CN2CCCCC2)c1 [ROXATIDINE ACETATE]
11 | Compound NOT metabolized | Compound NOT metabolized |  | Compound NOT metabolized | Compound NOT metabolized | Compound NOT metabolized | O=C(O)c1cc(/N=N/c2ccc(S(=O)(=O)Nc3ccccn3)cc2)ccc1O [SULFASALAZINE]
12 | Compound NOT metabolized | Compound NOT metabolized | Compound NOT metabolized | Compound NOT metabolized | Compound metabolized | Compound NOT metabolized | CCS(=O)(=O)CCn1c([N+](=O)[O-])cnc1C [TINIDAZOLE]

Row | Structure (SMILES) | Bacterial Biotransformation [1] | Bacterial Biotransformation [2] | Bacterial Biotransformation [3] | Bacterial Biotransformation [4] | Bacterial Biotransformation (Nitroreductase) | Bacterial Biotransformation (Endoglucanase E (EGE))
13 | C[C@@H]1CC[C@H]2[C@@H](C)C(=O)O[C@@H]3O[C@@]4(C)CC[C@@H]1[C@]32OO4 [ARTEMISININ] | Compound NOT metabolized | Compound NOT metabolized | Compound NOT metabolized | Compound NOT metabolized | Compound NOT metabolized | Compound NOT metabolized
